Earlier results in PMC8845813 (Angewandte Chemie (International ed. in English), 2021).

Test system: LC3A and LC3B LIR-interaction interface

Compound: CO[C@@H]1[C@@H](OC(N)=O)[C@@H](O)[C@H](Oc2ccc3c(O)c(NC(=O)c4ccc(O)c(CC=C(C)C)c4)c(=O)oc3c2C)OC1(C)C [novobiocin]
- potency at LC3A and LC3B LIR-interaction interface: weak potency
